Reference: patent US20240197719A1 (priority 2018, published 2024)

Key:
[1] = in vivo, iv; cited from earlier work
[2] = in vivo; cited from earlier work
[3] = in vivo

Structure (SMILES) | reported half-life [1] | incidence of adverse events [2] | incidence of common adverse reactions [2] | AUC [3]
C=C1CC[C@@]2(O)[C@H]3Cc4ccc(O)c5c4[C@@]2(CCN3CC2CC2)[C@H]1O5 [Nalmefene, 17-cyclopropylmethyl-4,5α-epoxy-6-methylenemorphinan-3,14-diol] | 8 to 10.8 h | less than 1% | greater than 1% | –
O=C1CC[C@@]2(O)[C@H]3Cc4ccc(O)c5c4[C@@]2(CCN3CC2CC2)[C@H]1O5 [naltrexone] | – | – | – | increased significantly
